Patent US20240158348A1, “HERBICIDAL CYCLIC AMIDES N-SUBSTITUTED WITH A HALOALKYLSULFONYLANILIDE GROUP” (FMC Corporation, priority 2021, published 2024)

Legend:
Format in all cases: in vivo
[1] = tested on: ryegrass, Italian (Italian ryegrass, Lolium multiflorum); assay: Test C preemergence, Italian ryegrass; conditions: 0 is no effect, 100 is complete control
Outline: (§1)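 Visual injury rating, 0 (no effect) to 100 (complete control), versus untreated controls after 10 or 12 days in the greenhouse. Compounds were formulated in non-phytotoxic solvent plus surfactant and applied either as a directed soil spray at sowing or onto emerged one- to two-leaf plants.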

soybean (Glycine max) = assay: Test C preemergence, soybean; conditions: 0 is no effect, 100 is complete control
Outline: as §1

corn (Zea mays) = assay: Test C postemergence, corn; conditions: for Corn plant response rating: 31 g ai/ha Postemergence, visual injury, 0 to 100 scale (0 no effect, 100 complete control); for Plant response rating (0 to 100 scale), Corn: 125 g ai/ha Postemergence, 0 is no effect, 100 is complete control
[2] = tested on: goosegrass (Eleusine indica); assay: Test C postemergence, goosegrass; conditions: for Goosegrass plant response rating: 31 g ai/ha Postemergence, visual injury, 0 to 100 scale (0 no effect, 100 complete control); for Plant response rating (0 to 100 scale), Goosegrass: 125 g ai/ha Postemergence, 0 is no effect, 100 is complete control
Outline: as §1

[3] = tested on: pigweed, palmer (palmer amaranth, Amaranthus palmeri); assay: Test C postemergence, palmer amaranth; conditions: for Pigweed, Palmer plant response rating: 31 g ai/ha Postemergence, visual injury, 0 to 100 scale (0 no effect, 100 complete control); for Plant response rating (0 to 100 scale), Pigweed, Palmer: 125 g ai/ha Postemergence, 0 is no effect, 100 is complete control
Outline: as §1

[4] = tested on: ragweed (common ragweed, Ambrosia artemisiifolia); assay: Test C postemergence, ragweed; conditions: for Ragweed plant response rating: 31 g ai/ha Postemergence, visual injury, 0 to 100 scale (0 no effect, 100 complete control); for Plant response rating (0 to 100 scale), Ragweed: 125 g ai/ha Postemergence, 0 is no effect, 100 is complete control
Outline: as §1

[5] = tested on: horseweed (Erigeron canadensis); assay: Test C postemergence, horseweed; conditions: for Horseweed plant response rating: 31 g ai/ha Postemergence, visual injury, 0 to 100 scale (0 no effect, 100 complete control); for Plant response rating (0 to 100 scale), Horseweed: 125 g ai/ha Postemergence, 0 is no effect, 100 is complete control
Outline: as §1

[6] = tested on: barnyardgrass (Echinochloa crusgalli); assay: Test D flooded paddy test, barnyardgrass; design: key: 0 = no effect, 100 = complete control; conditions: 250 g ai/ha, Flood; applied to paddy water at 2-leaf stage; visual rating after 13 days; scale 0 (no effect) to 100 (complete control)
Outline: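 Test compounds applied directly to paddy water after pots were flooded to 3 cm above soil, with plants at 2-leaf stage; depth held throughout. Greenhouse for 13 days, then visual rating versus controls on 0–100 scale (0 no effect, 100 complete control); dash means no result.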

SMILES | Plant response rating (0 to 100 scale), Ryegrass, Italian ([1]; 31 g ai/ha Preemergence) | Plant response rating (0 to 100 scale), Ryegrass, Italian ([1]; 125 g ai/ha Preemergence) | Plant response rating (0 to 100 scale), Soybean (soybean (Glycine max); 31 g ai/ha Preemergence) | Plant response rating (0 to 100 scale), Soybean (soybean (Glycine max); 125 g ai/ha Preemergence) | Corn plant response rating (corn (Zea mays)) | Plant response rating (0 to 100 scale), Corn (corn (Zea mays)) | Goosegrass plant response rating [2] | Plant response rating (0 to 100 scale), Goosegrass [2] | Pigweed, Palmer plant response rating [3] | Plant response rating (0 to 100 scale), Pigweed, Palmer [3] | Ragweed plant response rating [4] | Plant response rating (0 to 100 scale), Ragweed [4] | Horseweed plant response rating [5] | Plant response rating (0 to 100 scale), Horseweed [5] | Plant response rating, Barnyardgrass [6]
Cc1cc(C)c(N2CC/C(=N\O)C2=O)cc1NS(=O)(=O)C(F)(F)F [Compound 10, 1,1,1-trifluoro-N-[5-[3-(hydroxyimino)-2-oxo-1-pyrrolidinyl]-2,4-dimethylphenyl]methanesulfonamide] | 50 | 100 | 60 | 70 | 90 | 90 | 90 | 90 | 60 | 90 | 50 | 50 | 80 | 90 | 0
C=CCO/N=C1\CCN(c2cc(NS(=O)(=O)C(F)(F)F)c(C)cc2C)C1=O [Compound 11] | 40 | 90 | 50 | 90 | 90 | 100 | 90 | 100 | 40 | 90 | 60 | 80 | 20 | 70 | 25
CCO/N=C1\CCN(c2cc(NS(=O)(=O)C(F)(F)F)c(C)cc2C)C1=O [Compound 12, N-[5-[3-(ethoxyimino)-2-oxo-1-pyrrolidinyl]-2,4-dimethylphenyl]-1,1,1-trifluoromethanesulfonamide] | 90 | 100 | 90 | 100 | 100 | 100 | 100 | 100 | 80 | 100 | 90 | 90 | 90 | 100 | 0
C#CCO/N=C1\CCN(c2cc(NS(=O)(=O)C(F)(F)F)c(C)cc2C)C1=O [Compound 13, N-[2,4-dimethyl-5-[2-oxo-3-[(2-propyn-1-yloxy)imino]-1-pyrrolidinyl]phenyl]-1,1,1-trifluoromethanesulfonamide] | 40 | 100 | 80 | 100 | 100 | 100 | 70 | 100 | 80 | 90 | 80 | 90 | 70 | 90 | 10
Cc1cc(C)c(N2CCC(O)C2=O)cc1NS(=O)(=O)C(F)(F)F (stereo not drawn) [Compound 14] | 40 | 100 | 100 | 100 | 70 | 90 | 60 | 90 | 40 | 90 | 60 | 80 | 90 | 90 | 0
COC(=O)N(c1cc(N2CCC(OC3CC3)C2=O)c(C)cc1C)S(=O)(=O)C(F)(F)F (stereo not drawn) [Compound 16] | 0 | 0 | 20 | 20 | 0 | 0 | 0 | 0 | 0 | 0 | 80 | 90 | 0 | 30 | 0
Cc1cc(C)c(N(C(=O)OC(C)C)S(=O)(=O)C(F)(F)F)cc1N1CCC(OC2CC2)C1=O (stereo not drawn) [Compound 18] | 0 | 0 | 0 | 30 | 0 | 0 | 0 | 0 | 0 | 20 | 0 | 50 | 0 | 0 | 0
